# Reference: patent US20250197420A1, “MACROCYCLIC COMPOUNDS, COMPOSITIONS, AND METHODS OF USING THEREOF” (Sionna Therapeutics Inc., priority 2022, published 2025)
# Columns and labels:
# [1] = target: T1, Purified recombinant NBD1 (Homo sapiens, UniProt P13569); assay: Aggregation analysis using differential static light scattering (DSLS): thermal stability of NBD1; assay type: binding; details: NBD1 0.2 mg/ml; Tagg of compound well minus average Tagg of DMSO control wells
# T1 construct: Purified recombinant NBD1 was produced using previously described methods; made in house
# T1 sequence (P13569 423-646 limits assumed): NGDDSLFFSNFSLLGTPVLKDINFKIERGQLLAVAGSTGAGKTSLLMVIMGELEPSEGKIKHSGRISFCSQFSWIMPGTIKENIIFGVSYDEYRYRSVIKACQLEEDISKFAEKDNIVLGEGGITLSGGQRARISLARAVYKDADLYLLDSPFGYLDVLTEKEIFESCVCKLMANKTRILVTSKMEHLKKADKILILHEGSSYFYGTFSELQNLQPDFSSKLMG
# Method in brief: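 Recombinant NBD1 at 0.2 mg/ml in Tris/NaCl/MgCl2 buffer with 2 mM ATP, 2 mM DTT, 1% glycerol, pH 7.6, was incubated with compound and heated at 1 °C/min to 70 °C while static light scattering was monitored. Tagg was taken from the curve inflection point and reported as ΔTagg relative to DMSO controls.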
# [2] = tested on: Primary human bronchial epithelial cells from a ΔF508 homozygous CF donor (CF-HBE cells); assay: TECC24 recording of CFTR-mediated transepithelial chloride transport, AUC fold over benchmark VX-809 @10 μM; assay type: cell-based; details: 48 hours incubation, AUC of forskolin-stimulated IEQ
# Method in brief: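 CF-HBE cells on inserts were treated with compound for 48 h at 36.5 °C, then recorded in current-clamp with benzamil 10 μM, forskolin 10 μM, and finally CFTR inhibitor-172 20 μM in pH 7.4 Hepes saline. Equivalent Cl− current AUC between forskolin and inhibitor addition is expressed as a ratio to VX-809 AUC: A <3, B 3–6, C 6–20.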
Structure (SMILES),DSLS (ΔTagg) [1],TECC (test agent AUC divided by VX-809 AUC) [2]
"CNC(=O)CCc1cccc(C2(C)CCCC(C)(C)CN(C)C(=O)CCc3c(c(F)cc4[nH]ccc34)Oc3ccc(F)c(c3)-c3ncc2[nH]3)c1 (single isomer, unassigned) [Compound 53B, 3-[3-(23,29-difluoro-6,10,10,12-tetramethyl-13-oxo-25-oxa-3,12,20,31-tetrazapentacyclo-[24.3.1.12,5.016,24.017,21]hentriaconta-1(30),2,4,16,18,21,23,26,28-nonaen-6-yl)phenyl]-N-methyl-propanamide]",B (a value above 5 °C and less than or equal to 10 °C is marked “B”),A (a TECC value less than 3 is marked “A”)
"CN1CC(C)(C)CCCC(C)(c2cccc(CCC(=O)O)c2)c2cnc([nH]2)-c2cc(ccc2F)Oc2c(F)cc3[nH]ccc3c2CCC1=O (single isomer, unassigned) [Compound 49B, 3-[3-(23,29-Difluoro-6,10,10,12-tetramethyl-13-oxo-25-oxa-3,12,20,31-tetrazapentacyclo-[24.3.1.12,5.016,24.017,21]-hentriaconta-1(30),2,4,16,18,21,23,26,28-nonaen-6-yl)phenyl]propanoic acid]",C (a value greater than 10 °C and less than or equal to 25 °C is marked “C”),A (a TECC value less than 3 is marked “A”)
"CC1(c2cccc(CCC(=O)O)c2)CCCC2(CC2)CNC(=O)CCc2c(c(F)c(F)c3[nH]ccc23)Oc2ccc(F)c(c2)-c2ncc1[nH]2 (single isomer, unassigned) [Compound 69A, 3-[3-(22,23,29-trifluoro-6-methyl-13-oxo-spiro[25-oxa-3,12,20,31-tetrazapentacyclo-[24.3.1.12,5.016,24.017,21]hentriaconta-1(30),2,4,16,18,21,23,26,28-nonaene-10,1′-cyclopropane]-6-yl)phenyl]propanoic acid]",A (an ΔTagg value less than or equal to 5 °C is marked “A”),B (a value between 3 and 6 is marked “B”)
"CC1(C)CCCC(C)(c2cccc(CCC(=O)O)c2)c2cnc([nH]2)-c2cc(ccc2F)Oc2c(F)cc3[nH]ccc3c2CCC(=O)NC1 (single isomer, unassigned) [Compound 40A, 3-[3-(23,29-difluoro-6,10,10-trimethyl-13-oxo-25-oxa-3,12,20,31-tetrazapentacyclo-[24.3.1.12,5.016,24.017,21]hentriaconta-1(30),2,4,16,18,21,23,26,28-nonaen-6-yl)phenyl]propanoic acid]",A (an ΔTagg value less than or equal to 5 °C is marked “A”),A (a TECC value less than 3 is marked “A”)
"CN1CC(C)(C)CCCC(c2cccc(CCC(=O)O)c2)c2cnc([nH]2)-c2cc(ccc2F)Oc2c(F)cc3[nH]ccc3c2CCC1=O (stereo not drawn) [Compound 41, 3-[3-(23,29-Difluoro-10,10,12-trimethyl-13-oxo-25-oxa-3,12,20,31-tetrazapentacyclo[24.3.1.12,5.016,24.017,21]hentriaconta-1(30),2,4,16,18,21,23,26,28-nonaen-6-yl)phenyl]propanoic acid]",B (a value above 5 °C and less than or equal to 10 °C is marked “B”),B (a value between 3 and 6 is marked “B”)
"CN1CC(C)(C)CCCC(C)(c2ccc(CC(=O)O)cc2)c2cnc([nH]2)-c2cc(ccc2F)Oc2c(F)cc3[nH]ccc3c2CCC1=O (stereo not drawn) [Compound 63, 2-[4-(23,29-Difluoro-6,10,10,12-tetramethyl-13-oxo-25-oxa-3,12,20,31-tetrazapentacyclo[24.3.1.12,5.016,24.017,21]hentriaconta-1(30),2,4,16,18,21,23,26,28-nonaen-6-yl)phenyl]acetic acid]",B (a value above 5 °C and less than or equal to 10 °C is marked “B”),A (a TECC value less than 3 is marked “A”)
"Cn1nc2nc1-c1cc(ccc1F)Oc1c(F)cc3[nH]ccc3c1COC(=O)NC(C)(C)COCCC2(C)c1cccc(CCC(=O)O)c1 (single isomer, unassigned) [Compound 100B, 3-[3-(23,29-difluoro-3,6,11,11-tetramethyl-13-oxo-9,14,25-trioxa-3,4,12,20,31-pentazapentacyclo-[24.3.1.12,5.016,24.017,21]hentriaconta-1(30),2(31),4,16,18,21,23,26,28-nonaen-6-yl)phenyl]propanoic acid]",A (an ΔTagg value less than or equal to 5 °C is marked “A”),C (a value between 6 and 20 is marked “C”)
"CN1CC(C)(C)CCCC(C)(c2cccc(CCC(=O)NO)c2)c2cnc([nH]2)-c2cc(ccc2F)Oc2c(F)cc3[nH]ccc3c2CCC1=O (single isomer, unassigned) [Compound 54, 3-[3-(23,29-difluoro-6,10,10,12-tetramethyl-13-oxo-25-oxa-3,12,20,31-tetrazapentacyclo-[24.3.1.12,5.016,24.017,21]hentriaconta-1(30),2,4,16,18,21,23,26,28-nonaen-6-yl)phenyl]propanehydroxamic acid]",A (an ΔTagg value less than or equal to 5 °C is marked “A”),A (a TECC value less than 3 is marked “A”)
"CN1CCC(C)(C)CCC(c2cccc(CCC(=O)O)c2F)c2cnc([nH]2)-c2cc(ccc2F)Oc2c(F)cc3[nH]ccc3c2CCC1=O (stereo not drawn) [Compound 30, 3-[3-(23,29-Difluoro-9,9,12-trimethyl-13-oxo-25-oxa-3,12,20,31-tetrazapentacyclo[24.3.1.12,5.016,24.017,21]hentriaconta-1(30),2,4,16,18,21,23,26,28-nonaen-6-yl)-2-fluoro-phenyl]propanoic acid]",B (a value above 5 °C and less than or equal to 10 °C is marked “B”),A (a TECC value less than 3 is marked “A”)
"Cn1nc2nc1-c1cc(ccc1F)Oc1c(F)cc3[nH]ccc3c1COC(=O)NC(C)(C)CCCC2(C)c1cccc(CCC(=O)O)c1 (single isomer, unassigned) [Compound 99B, 3-[3-(22,28-difluoro-3,6,10,10-tetramethyl-12-oxo-13,24-dioxa-3,4,11,19,30-pentazapentacyclo-[23.3.1.12,5.015,23.016,20]-triaconta-1(29),2(30),4,15,17,20,22,25,27-nonaen-6-yl)phenyl]propanoic acid]",A (an ΔTagg value less than or equal to 5 °C is marked “A”),B (a value between 3 and 6 is marked “B”)
"CC1(c2ccccc2)CC(=O)NCCCCCc2c(c(F)cc3[nH]ccc23)Oc2ccc(F)c(c2)-c2ncc1[nH]2 (stereo not drawn) [Compound 27, 22,28-Difluoro-6-methyl-6-phenyl-24-oxa-3,9,19,30-tetrazapentacyclo[23.3.1.12,5.015,23.016,20]triaconta-1(29),2,4,15,17,20,22,25,27-nonaen-8-one]",A (an ΔTagg value less than or equal to 5 °C is marked “A”),A (a TECC value less than 3 is marked “A”)
"CC1(c2cccc(CCC(=O)O)c2)CCCC2(CC2)CNC(=O)CCc2c(c(F)cc3[nH]ccc23)Oc2ccc(F)c(c2)-c2ncc1[nH]2 (stereo not drawn) [Compound 36, 3-[3-(23,29-Difluoro-6-methyl-13-oxo-spiro[25-oxa-3,12,20,31-tetrazapentacyclo[24.3.1.12,5.016,24.017,21]hentriaconta-1(30),2,4,16,18,21,23,26,28-nonaene-10,1′-cyclopropane]-6-yl)phenyl]propanoic acid]",C (a value greater than 10 °C and less than or equal to 25 °C is marked “C”),B (a value between 3 and 6 is marked “B”)
"CN1CCC(C)(C)CCC(c2ccccc2F)c2cnc([nH]2)-c2cc(ccc2F)Oc2c(F)cc3[nH]ccc3c2CCC1=O (stereo not drawn) [Compound 31, 23,29-difluoro-6-(2-fluorophenyl)-9,9,12-trimethyl-25-oxa-3,12,20,31-tetrazapentacyclo[24.3.1.12,5.016,24.017,21]hentriaconta-1(30),2,4,16,18,21,23,26,28-nonaen-13-one]",A (an ΔTagg value less than or equal to 5 °C is marked “A”),A (a TECC value less than 3 is marked “A”)
"CC1(C)CCCCC(C)(c2ccccc2)c2cnc([nH]2)-c2cc(ccc2F)Oc2c(F)cc3[nH]ccc3c2COC(=O)N1 (stereo not drawn) [Compound 94, 23,29-Difluoro-6,11,11-trimethyl-6-phenyl-14,25-dioxa-3,12,20,31-tetrazapentacyclo[24.3.1.12,5.016,24.017,21]hentriaconta-1(30),2,4,16,18,21,23,26,28-nonaen-13-one]",B (a value above 5 °C and less than or equal to 10 °C is marked “B”),A (a TECC value less than 3 is marked “A”)
"CNC(=O)CCc1cccc(C2(C)CCCC(C)(C)CN(C)C(=O)CCc3c(c(F)cc4[nH]ccc34)Oc3ccc(F)c(c3)-c3ncc2[nH]3)c1 (single isomer, unassigned) [Compound 53A, 3-[3-(23,29-difluoro-6,10,10,12-tetramethyl-13-oxo-25-oxa-3,12,20,31-tetrazapentacyclo-[24.3.1.12,5.016,24.017,21]hentriaconta-1(30),2,4,16,18,21,23,26,28-nonaen-6-yl)phenyl]-N-methyl-propanamide]",A (an ΔTagg value less than or equal to 5 °C is marked “A”),A (a TECC value less than 3 is marked “A”)
